Assay results published in ChEMBL document CHEMBL1201862, “PubChem BioAssay data set” (2004).
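Assay format: 96-well plates, 48-hour exposure. GI50 = concentration required for 50% inhibition of growth.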 Active and inactive are the calls of the source. No stated cut-off is given here; in the data, active = GI50 up to about 1.1 µM and inactive = higher.

Columns and labels:
Assay in all cases: NCI-60 cell line screen, 48 h
OVCAR-4 = test system: OVCAR-4
K562 = test system: K562
A549 = test system: A549
UACC-62 = test system: UACC-62
SK-MEL-5 = test system: SK-MEL-5
KM12 = test system: KM12
UO-31 = test system: UO-31
OVCAR-8 = test system: OVCAR-8
SW-620 = test system: SW-620
RXF 393 = test system: RXF 393
Malme-3M = test system: Malme-3M
U-251 = test system: U-251
M14 = test system: M14
SF-295 = test system: SF-295
SNB-19 = test system: SNB-19
SNB-75 = test system: SNB-75
HCT-15 = test system: HCT-15
SR = test system: SR

Compound	GI50 (OVCAR-4)	GI50 (K562)	GI50 (A549)	GI50 (UACC-62)	GI50 (SK-MEL-5)	GI50 (KM12)	GI50 (UO-31)	GI50 (OVCAR-8)	GI50 (SW-620)	GI50 (RXF 393)	GI50 (Malme-3M)	GI50 (U-251)	GI50 (M14)	GI50 (SF-295)	GI50 (SNB-19)	GI50 (SNB-75)	GI50 (HCT-15)	GI50 (SR)
O=C(O)CCCNS(=O)(=O)c1ccc2ccccc2c1	> 100 µM (inactive)	> 100 µM (inactive)	> 100 µM (inactive)	> 100 µM (inactive)	> 100 µM (inactive)	> 100 µM (inactive)	> 100 µM (inactive)	> 100 µM (inactive)	> 100 µM (inactive)	> 100 µM (inactive)	> 100 µM (inactive)	> 100 µM (inactive)	> 100 µM (inactive)	> 100 µM (inactive)	> 100 µM (inactive)	> 100 µM (inactive)	> 100 µM	–
CC(C)N(C(=O)C12C3C4C5(C#N)C3C1(C#N)C5C42I)C(C)C (stereo unspecified)	> 100 µM (inactive)	> 42.2 µM (inactive)	> 59 µM (inactive)	> 100 µM (inactive)	> 100 µM (inactive)	> 100 µM (inactive)	> 100 µM (inactive)	> 85.5 µM (inactive)	> 41.4 µM (inactive)	> 100 µM (inactive)	> 100 µM (inactive)	> 100 µM (inactive)	> 100 µM (inactive)	> 100 µM (inactive)	> 100 µM (inactive)	> 59 µM (inactive)	> 78.5 µM	13.4 µM (inactive)
COC(=O)c1ccc(OCc2ccc3nc(OC)c(OC)nc3c2)cc1	> 100 µM (inactive)	> 100 µM (inactive)	> 100 µM (inactive)	–	> 100 µM (inactive)	> 100 µM (inactive)	> 100 µM (inactive)	> 100 µM (inactive)	> 100 µM (inactive)	–	> 100 µM (inactive)	49.1 µM (inactive)	> 100 µM (inactive)	82.6 µM (inactive)	> 100 µM (inactive)	> 100 µM (inactive)	> 100 µM	> 100 µM (inactive)
O=C(CC1OC(O)C(Cl)=C1Cl)c1cccnc1 (stereo unspecified)	> 100 µM (inactive)	> 100 µM (inactive)	> 100 µM (inactive)	> 100 µM (inactive)	83.8 µM (inactive)	> 100 µM (inactive)	> 100 µM (inactive)	> 100 µM (inactive)	–	> 100 µM (inactive)	> 100 µM (inactive)	> 41.2 µM (inactive)	> 100 µM (inactive)	> 100 µM (inactive)	> 100 µM (inactive)	> 100 µM (inactive)	> 41.1 µM	> 100 µM (inactive)
COC(=O)[C@]12CC=C3O[C@@H]4OC5(CCCCC5)O[C@@H]4C3[C@@H]1C(=O)CCC2=O (stereo partly specified)	> 100 µM (inactive)	> 100 µM (inactive)	> 100 µM (inactive)	> 100 µM (inactive)	> 100 µM (inactive)	> 100 µM (inactive)	> 100 µM (inactive)	> 100 µM (inactive)	> 100 µM (inactive)	–	> 100 µM (inactive)	> 100 µM (inactive)	> 100 µM (inactive)	> 100 µM (inactive)	> 100 µM (inactive)	> 100 µM (inactive)	> 100 µM	–
O=C(c1cc2c(C(F)(F)F)onc2c2ccccc12)C(F)(F)F	3.65 µM (inactive)	0.855 µM (active)	4.51 µM (inactive)	2.98 µM (inactive)	4.16 µM (inactive)	0.746 µM (active)	1.7 µM (inactive)	1.78 µM (inactive)	2.68 µM (inactive)	4.3 µM (inactive)	–	0.371 µM (active)	3.94 µM (inactive)	2.58 µM (inactive)	3.8 µM (inactive)	1.16 µM (inactive)	0.741 µM	1.41 µM (inactive)
COc1ccc(/C=C(\C#N)c2ccccn2)cc1OC	73.1 µM (inactive)	85.5 µM (inactive)	41.5 µM (inactive)	58.7 µM (inactive)	25.1 µM (inactive)	53.1 µM (inactive)	29.8 µM (inactive)	> 100 µM (inactive)	56.1 µM (inactive)	23.7 µM (inactive)	46.8 µM (inactive)	16.3 µM (inactive)	> 100 µM (inactive)	26.8 µM (inactive)	39.8 µM (inactive)	21.3 µM (inactive)	32.2 µM	33.8 µM (inactive)
Cc1[nH]c2ccccc2c1C1Cc2ccccc2N1C(=O)C#Cc1ccc([N+](=O)[O-])cc1 (stereo unspecified)	43.7 µM (inactive)	> 100 µM (inactive)	> 100 µM (inactive)	> 100 µM (inactive)	–	> 100 µM (inactive)	51.9 µM (inactive)	> 100 µM (inactive)	> 100 µM (inactive)	6.81 µM (inactive)	> 100 µM (inactive)	> 100 µM (inactive)	> 100 µM (inactive)	> 100 µM (inactive)	> 100 µM (inactive)	> 100 µM (inactive)	–	8 µM (inactive)
O=C1C2CN(Cc3ccccc3)CC1CN(CC1CC1)C2	> 100 µM (inactive)	> 100 µM (inactive)	> 100 µM (inactive)	> 100 µM (inactive)	> 100 µM (inactive)	> 100 µM (inactive)	> 100 µM (inactive)	> 100 µM (inactive)	> 100 µM (inactive)	> 100 µM (inactive)	> 100 µM (inactive)	> 100 µM (inactive)	> 100 µM (inactive)	> 100 µM (inactive)	> 100 µM (inactive)	> 100 µM (inactive)	> 100 µM	–
CC(=O)OCCOCNC(=S)N/N=C/c1ccc([N+](=O)[O-])o1	> 100 µM (inactive)	37.1 µM (inactive)	63.5 µM (inactive)	18.5 µM (inactive)	28.7 µM (inactive)	57 µM (inactive)	> 100 µM (inactive)	77.3 µM (inactive)	34.5 µM (inactive)	> 100 µM (inactive)	94.8 µM (inactive)	83.9 µM (inactive)	36.6 µM (inactive)	40.6 µM (inactive)	> 100 µM (inactive)	> 100 µM (inactive)	52.6 µM	–
O=C1C(c2ccccc2)=C(c2ccccc2)C(c2ccc(CCCCCCc3ccc(C4=C(c5ccccc5)C(=O)C(c5ccccc5)=C4c4ccccc4)cc3)cc2)=C1c1ccccc1	> 100 µM (inactive)	> 100 µM (inactive)	> 100 µM (inactive)	> 100 µM (inactive)	> 100 µM (inactive)	> 100 µM (inactive)	> 100 µM (inactive)	> 100 µM (inactive)	> 100 µM (inactive)	26.4 µM (inactive)	> 100 µM (inactive)	64.6 µM (inactive)	> 100 µM (inactive)	> 100 µM (inactive)	65 µM (inactive)	–	> 100 µM	–
COc1ccccc1NC(=O)C1=C(C)NC(C)=C(C(=O)Nc2ccccc2OC)C1c1ccc(C(C)C)cc1	16.8 µM (inactive)	–	40.1 µM (inactive)	> 100 µM (inactive)	38.9 µM (inactive)	55.6 µM (inactive)	29 µM (inactive)	> 100 µM (inactive)	> 100 µM (inactive)	–	67.6 µM (inactive)	84.3 µM (inactive)	> 100 µM (inactive)	> 100 µM (inactive)	> 100 µM (inactive)	27 µM (inactive)	> 100 µM	15.5 µM (inactive)
COc1ccc(/C=N/NS(=O)(=O)c2ccccc2)cc1	> 100 µM (inactive)	> 100 µM (inactive)	> 100 µM (inactive)	> 100 µM (inactive)	> 100 µM (inactive)	> 100 µM (inactive)	> 100 µM (inactive)	> 100 µM (inactive)	> 100 µM (inactive)	> 100 µM (inactive)	> 100 µM (inactive)	> 100 µM (inactive)	> 100 µM (inactive)	93.5 µM (inactive)	–	> 100 µM (inactive)	> 100 µM	> 100 µM (inactive)
Cc1nc(-n2nc(-c3ccccc3)cc2-c2ccccc2)sc1C(=O)CC(=O)C(=O)Nc1ccc(Cl)c(Cl)c1	66.4 µM (inactive)	41.6 µM (inactive)	> 100 µM (inactive)	45.8 µM (inactive)	–	35.9 µM (inactive)	77.1 µM (inactive)	> 100 µM (inactive)	65.9 µM (inactive)	> 100 µM (inactive)	> 100 µM (inactive)	78.2 µM (inactive)	> 100 µM (inactive)	79.3 µM (inactive)	79.4 µM (inactive)	55 µM (inactive)	56.1 µM	> 100 µM (inactive)
CCc1cccc(C)c1NC(=O)C1=C(C)NC(C)=C(C(=O)Nc2c(C)cccc2CC)C1c1ccc2c(c1)OCO2	20.1 µM (inactive)	27.2 µM (inactive)	16.9 µM (inactive)	–	16.2 µM (inactive)	16.4 µM (inactive)	15.3 µM (inactive)	29.6 µM (inactive)	20.2 µM (inactive)	13.2 µM (inactive)	15.6 µM (inactive)	15.2 µM (inactive)	16.1 µM (inactive)	17.5 µM (inactive)	29.1 µM (inactive)	9.84 µM (inactive)	–	–
O=C1c2cc3c(cc2[C@@H]2NC4CCCC14O2)OCO3 (stereo partly specified)	> 100 µM (inactive)	> 100 µM (inactive)	> 100 µM (inactive)	> 100 µM (inactive)	> 100 µM (inactive)	> 100 µM (inactive)	> 100 µM (inactive)	> 100 µM (inactive)	> 100 µM (inactive)	> 100 µM (inactive)	–	> 100 µM (inactive)	> 100 µM (inactive)	> 100 µM (inactive)	> 100 µM (inactive)	> 100 µM (inactive)	–	> 100 µM (inactive)
